Test results taken from PubChem BioAssay AID2060603 (Molecular Pharmacology Branch, DTP, NCI, 2025).

Tested on: 422866-222-R5-J1-PDC spheroid viability
Experiment: Anticancer human tumor 422866-222-R5-J1-PDC patient-derived pancreatic adenocarcinoma cell line growth inhibition [CLK]
Conditions: spheroids with HUVEC and MSC; for IC50: curve of first compound; for viability, T/C: stronger effect = lower value
Summary of the method: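 Multi-cell-type spheroids combined patient-derived tumor cells with HUVEC endothelial cells and human mesenchymal stem cells. Paired agents were dosed in half-log steps down from about clinical Cmax, or from 10 microM where Cmax was unknown.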

[1] = second compound 0.0316 µM, first compound 0.00316 µM
[2] = second compound 0.0316 µM, first compound 0.01 µM
[3] = second compound 0.0316 µM, first compound 0.0316 µM
[4] = second compound 0.0316 µM, first compound 0.1 µM
[5] = second compound 0.0316 µM, first compound 0.316 µM
[6] = second compound 0.0316 µM, first compound 1 µM
[7] = second compound 0.1 µM, first compound 0.00316 µM
[8] = second compound 0.1 µM, first compound 0.01 µM
[9] = second compound 0.1 µM, first compound 0.0316 µM
[10] = second compound 0.1 µM, first compound 0.1 µM
[11] = second compound 0.1 µM, first compound 0.316 µM
[12] = second compound 0.1 µM, first compound 1 µM
[13] = second compound 0.316 µM, first compound 0.00316 µM
[14] = second compound 0.316 µM, first compound 0.01 µM
[15] = second compound 0.316 µM, first compound 0.0316 µM
[16] = second compound 0.316 µM, first compound 0.1 µM
[17] = second compound 0.316 µM, first compound 0.316 µM
[18] = second compound 0.316 µM, first compound 1 µM
[19] = second compound 1 µM, first compound 0.00316 µM
[20] = second compound 1 µM, first compound 0.01 µM
[21] = second compound 1 µM, first compound 0.0316 µM
[22] = second compound 1 µM, first compound 0.1 µM
[23] = second compound 1 µM, first compound 0.316 µM
[24] = second compound 1 µM, first compound 1 µM
[25] = second compound 3.16 µM, first compound 0.00316 µM
[26] = second compound 3.16 µM, first compound 0.01 µM
[27] = second compound 3.16 µM, first compound 0.0316 µM
[28] = second compound 3.16 µM, first compound 0.1 µM
[29] = second compound 3.16 µM, first compound 0.316 µM
[30] = second compound 3.16 µM, first compound 1 µM
[31] = second compound 10 µM, first compound 0.00316 µM
[32] = second compound 10 µM, first compound 0.01 µM
[33] = second compound 10 µM, first compound 0.0316 µM
[34] = second compound 10 µM, first compound 0.1 µM
[35] = second compound 10 µM, first compound 0.316 µM
[36] = second compound 10 µM, first compound 1 µM
[37] = second compound 0.0316 µM, first compound 3.16 µM
[38] = second compound 0.0316 µM, first compound 10 µM
[39] = second compound 0.1 µM, first compound 3.16 µM
[40] = second compound 0.1 µM, first compound 10 µM
[41] = second compound 0.316 µM, first compound 3.16 µM
[42] = second compound 0.316 µM, first compound 10 µM
[43] = second compound 1 µM, first compound 3.16 µM
[44] = second compound 1 µM, first compound 10 µM
[45] = second compound 3.16 µM, first compound 3.16 µM
[46] = second compound 3.16 µM, first compound 10 µM
[47] = second compound 10 µM, first compound 3.16 µM
[48] = second compound 10 µM, first compound 10 µM
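Also: spheroids exposed to agents for seven days before readout.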

CCc1c2c(nc3ccc(O)cc13)-c1cc3c(c(=O)n1C2)COC(=O)[C@]3(O)CC + CNC(=O)c1ccc(Nc2nc(OC3CCCC3)c3c(-c4ccc5nc(C)oc5c4)c[nH]c3n2)c(OC)c1
IC50 (second compound 0.0316 µM): < 3.16 nM | IC50 (second compound 0.1 µM): < 3.16 nM | IC50 (second compound 0.316 µM): < 3.16 nM | IC50 (second compound 1 µM): < 3.16 nM | IC50 (second compound 3.16 µM): < 3.16 nM | IC50 (second compound 10 µM): < 3.16 nM | viability, T/C [1]: 45.6% | viability, T/C [2]: 46.4% | viability, T/C [3]: 51% | viability, T/C [4]: 46.5% | viability, T/C [5]: 42.7% | viability, T/C [6]: 16.4% | viability, T/C [7]: 49.1% | viability, T/C [8]: 43.8% | viability, T/C [9]: 40.2% | viability, T/C [10]: 38% | viability, T/C [11]: 40% | viability, T/C [12]: 19.6% | viability, T/C [13]: 42.3% | viability, T/C [14]: 33.2% | viability, T/C [15]: 30.9% | viability, T/C [16]: 38.5% | viability, T/C [17]: 27.6% | viability, T/C [18]: 24.5% | viability, T/C [19]: 46.8% | viability, T/C [20]: 28.1% | viability, T/C [21]: 38.2% | viability, T/C [22]: 42.4% | viability, T/C [23]: 20.8% | viability, T/C [24]: 25.8% | viability, T/C [25]: 41.9% | viability, T/C [26]: 38.7% | viability, T/C [27]: 33% | viability, T/C [28]: 39.8% | viability, T/C [29]: 22.6% | viability, T/C [30]: 23.3% | viability, T/C [31]: 31.2% | viability, T/C [32]: 27.5% | viability, T/C [33]: 38.4% | viability, T/C [34]: 32.7% | viability, T/C [35]: 23.7% | viability, T/C [36]: 28.7%

Cn1ncnc1[C@H]1c2n[nH]c(=O)c3cc(F)cc(c23)N[C@@H]1c1ccc(F)cc1 + CNC(=O)c1ccc(Nc2nc(OC3CCCC3)c3c(-c4ccc5nc(C)oc5c4)c[nH]c3n2)c(OC)c1
IC50 (second compound 0.0316 µM): > 100 nM | IC50 (second compound 0.1 µM): > 100 nM | IC50 (second compound 0.316 µM): > 100 nM | IC50 (second compound 1 µM): > 100 nM | IC50 (second compound 3.16 µM): > 100 nM | IC50 (second compound 10 µM): > 100 nM | viability, T/C (second compound 0.0316 µM, first compound 0.000316 µM): 105% | viability, T/C (second compound 0.0316 µM, first compound 0.001 µM): 112% | viability, T/C [1]: 102% | viability, T/C [2]: 91.2% | viability, T/C [3]: 89.6% | viability, T/C [4]: 78.6% | viability, T/C (second compound 0.1 µM, first compound 0.000316 µM): 98.8% | viability, T/C (second compound 0.1 µM, first compound 0.001 µM): 91% | viability, T/C [7]: 84.2% | viability, T/C [8]: 89.8% | viability, T/C [9]: 74.8% | viability, T/C [10]: 83.8% | viability, T/C (second compound 0.316 µM, first compound 0.000316 µM): 84.8% | viability, T/C (second compound 0.316 µM, first compound 0.001 µM): 75.2% | viability, T/C [13]: 66.3% | viability, T/C [14]: 68% | viability, T/C [15]: 80.9% | viability, T/C [16]: 64.7% | viability, T/C (second compound 1 µM, first compound 0.000316 µM): 75.8% | viability, T/C (second compound 1 µM, first compound 0.001 µM): 65% | viability, T/C [19]: 63.7% | viability, T/C [20]: 52.4% | viability, T/C [21]: 52.4% | viability, T/C [22]: 54.6% | viability, T/C (second compound 3.16 µM, first compound 0.000316 µM): 61.9% | viability, T/C (second compound 3.16 µM, first compound 0.001 µM): 73.8% | viability, T/C [25]: 60.1% | viability, T/C [26]: 54.3% | viability, T/C [27]: 53.8% | viability, T/C [28]: 52% | viability, T/C (second compound 10 µM, first compound 0.000316 µM): 61.8% | viability, T/C (second compound 10 µM, first compound 0.001 µM): 59.6% | viability, T/C [31]: 55.9% | viability, T/C [32]: 48.6% | viability, T/C [33]: 65% | viability, T/C [34]: 71.9%

Nc1ccn(C2OC(CO)C(O)C2(F)F)c(=O)n1 (stereo not drawn) + CNC(=O)c1ccc(Nc2nc(OC3CCCC3)c3c(-c4ccc5nc(C)oc5c4)c[nH]c3n2)c(OC)c1
IC50 (second compound 0.0316 µM): 939 nM | IC50 (second compound 0.1 µM): 125 nM | IC50 (second compound 0.316 µM): 86 nM | IC50 (second compound 1 µM): 119 nM | IC50 (second compound 3.16 µM): 158 nM | IC50 (second compound 10 µM): 72.4 nM | viability, T/C [3]: 61.4% | viability, T/C [4]: 57.8% | viability, T/C [5]: 53.7% | viability, T/C [6]: 50% | viability, T/C [37]: 45.3% | viability, T/C [38]: 39.6% | viability, T/C [9]: 90.4% | viability, T/C [10]: 50.8% | viability, T/C [11]: 44.9% | viability, T/C [12]: 46.1% | viability, T/C [39]: 36.3% | viability, T/C [40]: 42.1% | viability, T/C [15]: 73.8% | viability, T/C [16]: 46.7% | viability, T/C [17]: 37.8% | viability, T/C [18]: 40.6% | viability, T/C [41]: 36% | viability, T/C [42]: 37.5% | viability, T/C [21]: 69.8% | viability, T/C [22]: 51.4% | viability, T/C [23]: 42.8% | viability, T/C [24]: 32.2% | viability, T/C [43]: 39.2% | viability, T/C [44]: 43.8% | viability, T/C [27]: 55.2% | viability, T/C [28]: 60.7% | viability, T/C [29]: 42.1% | viability, T/C [30]: 40.4% | viability, T/C [45]: 33.7% | viability, T/C [46]: 34.1% | viability, T/C [33]: 67.8% | viability, T/C [34]: 42.9% | viability, T/C [35]: 40.3% | viability, T/C [36]: 33.7% | viability, T/C [47]: 39.2% | viability, T/C [48]: 40.6%

O=c1[nH]cc(F)c(=O)[nH]1 + CNC(=O)c1ccc(Nc2nc(OC3CCCC3)c3c(-c4ccc5nc(C)oc5c4)c[nH]c3n2)c(OC)c1
IC50 (second compound 0.0316 µM): > 10000 nM | IC50 (second compound 0.1 µM): > 10000 nM | IC50 (second compound 0.316 µM): > 10000 nM | IC50 (second compound 1 µM): 2180 nM | IC50 (second compound 3.16 µM): > 10000 nM | IC50 (second compound 10 µM): 3110 nM | viability, T/C [3]: 102% | viability, T/C [4]: 103% | viability, T/C [5]: 89.9% | viability, T/C [6]: 91.2% | viability, T/C [37]: 82.2% | viability, T/C [38]: 72.5% | viability, T/C [9]: 100% | viability, T/C [10]: 98.1% | viability, T/C [11]: 86% | viability, T/C [12]: 78.1% | viability, T/C [39]: 87% | viability, T/C [40]: 78.3% | viability, T/C [15]: 79.3% | viability, T/C [16]: 79.7% | viability, T/C [17]: 68.9% | viability, T/C [18]: 61.7% | viability, T/C [41]: 58.3% | viability, T/C [42]: 57.2% | viability, T/C [21]: 68.2% | viability, T/C [22]: 67.1% | viability, T/C [23]: 51.6% | viability, T/C [24]: 54.2% | viability, T/C [43]: 51% | viability, T/C [44]: 44.5% | viability, T/C [27]: 58.3% | viability, T/C [28]: 78.6% | viability, T/C [29]: 73.1% | viability, T/C [30]: 56.8% | viability, T/C [45]: 52.5% | viability, T/C [46]: 49.4% | viability, T/C [33]: 60.6% | viability, T/C [34]: 63.7% | viability, T/C [35]: 70% | viability, T/C [36]: 57.7% | viability, T/C [47]: 46.4% | viability, T/C [48]: 53.5%
